Test results as given in patent publication US7241785B2, “Five-membered heterocyclic alkanoic acid derivative” (Takeda Pharmaceutical Company Limited, priority 2001, dated 2007).

How the values were obtained:
[1] = system: KKA^y mice; assay: Hypoglycemic and hypolipidemic (hypotriglyceridemic) actions in mice; format: in vivo; conditions: Mus musculus, po, 96 h, 0.01% in powdery diet, four days
Experimental: Hypoglycemic and Hypolipidemic (Hypotriglyceridemic) Actions in Mice
Test compounds were mixed in a powdery diet (CE-2, Japan Clea) at the concentration of 0.01%, and freely given to KKA^y mice (11 to 12 weeks old, 5 mice per group), a model of type 2 diabetes mellitus, for four days. During this period, water was given freely. Blood was sampled from orbital venous plexus, and glucose and triglyceride levels in plasma separated from the blood were determined enzymatically using L type Wako Glu2 (Wako Pure Chemical Industries, Ltd.) or L type Wako TG.H (Wako Pure Chemical Industries, Ltd.), respectively.
In the Table, “hypoglycemic action (%)” represents a percent reduction (%) of the blood glucose level in the treatment group when the blood glucose level in the non-treatment group is taken as 100%. In addition, “hypolipidemic action (%)” represents a percent reduction (%) of the blood triglyceride level in the treatment group when the blood triglyceride level in the non-treatment group is taken as 100%.

[2] = molecular target: T1, PPARγ-RXRα heterodimer (Homo sapiens, UniProt P37231); assay: PPARγ-RXRα heterodimer ligand activity (luciferase reporter, PPARγ:RXRα:4ERPP/CHO-K1 cells); format: cell-based; conditions: concentration for 50% of maximum fold induction of luciferase, 48 hrs
T1 construct: expressed in transfected cells
T1 sequence (P37231 1-477 isoform P37231-2): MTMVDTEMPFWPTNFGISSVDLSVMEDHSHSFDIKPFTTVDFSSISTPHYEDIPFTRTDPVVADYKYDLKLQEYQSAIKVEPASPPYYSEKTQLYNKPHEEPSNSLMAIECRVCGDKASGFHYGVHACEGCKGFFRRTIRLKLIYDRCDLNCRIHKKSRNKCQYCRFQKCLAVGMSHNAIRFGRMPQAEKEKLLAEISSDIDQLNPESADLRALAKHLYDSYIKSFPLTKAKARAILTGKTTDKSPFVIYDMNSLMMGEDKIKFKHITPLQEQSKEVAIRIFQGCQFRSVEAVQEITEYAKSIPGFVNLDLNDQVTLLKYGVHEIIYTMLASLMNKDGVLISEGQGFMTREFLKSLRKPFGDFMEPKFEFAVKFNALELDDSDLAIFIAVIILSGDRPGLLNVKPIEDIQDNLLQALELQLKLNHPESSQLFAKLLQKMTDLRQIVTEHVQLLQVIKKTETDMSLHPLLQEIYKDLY
T1 sequence (P19793 1-462 partner): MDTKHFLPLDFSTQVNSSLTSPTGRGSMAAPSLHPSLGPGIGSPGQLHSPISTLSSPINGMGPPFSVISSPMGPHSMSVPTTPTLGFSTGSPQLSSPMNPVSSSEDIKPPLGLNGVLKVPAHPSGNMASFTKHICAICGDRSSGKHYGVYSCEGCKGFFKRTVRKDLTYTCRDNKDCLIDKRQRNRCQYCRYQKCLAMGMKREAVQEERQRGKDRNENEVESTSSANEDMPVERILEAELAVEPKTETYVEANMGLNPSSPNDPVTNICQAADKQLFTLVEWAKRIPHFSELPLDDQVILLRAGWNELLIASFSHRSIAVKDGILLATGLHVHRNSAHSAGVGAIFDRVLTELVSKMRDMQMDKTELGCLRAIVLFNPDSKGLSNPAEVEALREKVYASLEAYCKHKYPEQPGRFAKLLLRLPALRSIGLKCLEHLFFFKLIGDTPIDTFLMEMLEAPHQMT
Experimental: (PPARγ-RXRα Heterodimer Ligand Activity)
PPARγ:RXRα:4ERPP/CHO-K1 cells obtained in Reference Example 8a were cultured in HAM F12 medium (manufactured by NISSUI SEIYAKU) containing 10% fetal bovine serum [manufactured by Life Technologies, Inc., USA], seeded in a 96-well white plate [manufactured by Corning Coster Corporation, USA] at the density of 2×10^4 cells/well and cultured in a CO2 gas incubator at 37° C. overnight.
After washing the 96-well white plate with PBS (Phosphate-buffered saline), 90 μl of HAM F12 medium containing 0.1% fatty acid-free bovine serum albumin (BSA) and 10 μl of test compound were added, and the cells were cultured in a CO2 gas incubator at 37° C. for 48 hrs. The medium was removed and 40 μl of PicaGene 7.5 (manufactured by Wako Pure Chemical Industries, Ltd.) was added. After stirring, the luciferase activity was determined using Lumistar [manufactured by BMG Labtechnologies GmbH, Germany].
The fold induction was calculated from the luciferase activity of each test compound when the luciferase activity of the non-treatment group is taken as 1. The values of the test compound concentration and the fold induction were analyzed using PRISM 2.01 (produced by GraphPad Software Inc. USA) to calculate the EC50 values, the effective concentration of a test compound for 50% of the maximum fold induction.
Introduction of Human PPARγ- and RXRα-Expression Plasmid and Reporter Plasmid into CHO-K1 Cell and Establishment of Expressed Cell
After a CHO-K1 cell cultured in a tissue culture flask (750 ml) (produced by Corning Costar Corporation, USA) containing HAM F12 medium (produced by NISSUI SEIYAKU) supplemented with 10% fetal bovine serum (produced by Life Technologies, Inc., USA) was scraped by treating with 0.5 g/L trypsin-0.2 g/L EDTA (ethylenediaminetetraacetic acid) (produced by Life Technologies, Inc., USA), the cell was washed with PBS (phosphate-buffered saline) (produced by Life Technologies, Inc., USA), centrifuged (1000 rpm, 5 minutes), and then suspended in PBS. Subsequently, a DNA was introduced into the cell under the conditions shown below using GENE PULSER (produced by Bio-Rad Laboratories, USA).
Namely, to a cuvette having a 0.4 cm gap, added were 8×10^6 cells and 10 μg of plasmid pVgRXR2-hPPARγ obtained in Reference Example 7a and 10 μg of reporter plasmid pGL3-4ERPP-TK neo obtained in Reference Example 4a, which was subjected to electroporation at the voltage of 0.25 kV under the capacitance of 960 μF. Subsequently, the cell was transferred into a HAM F12 medium containing 10% fetal bovine serum and cultured for 24 hours and then the cell was scraped again and centrifuged, and then suspended in HAM F12 medium containing 10% fetal bovine serum supplemented with 500 μg/ml of GENETICIN, (produced by Life Technologies, Inc., USA) and 250 μg /ml of ZEOCIN (produced by Invitrogen, USA). The obtained suspension was diluted to the density of 10^4 cells/ml and inoculated to a 96-well plate (produced by Corning Costar Corporation, USA), which was cultured in a CO2 gas incubator at 37° C., whereby obtaining a GENETICIN- and ZEOCIN-resistant transformant.
Subsequently, after the transformant cell line thus obtained was cultured in a 24-well plate (produced by Corning Costar Corporation, USA), selected was a cell line in which the luciferase was expressed and induced, i.e., PPARγ:RXRα:4ERPP/CHO-K1 cell by the addition of 10 μM pioglitazone hydrochloride.

[3] = system: KKA^y mice; assay: Total cholesterol lowering action and plasma anti-arteriosclerosis index-enhancing action in mice; format: in vivo; conditions: Mus musculus, po, 96 h, 0.01% in powdery diet, four days; for change in vivo at 0.01 % in diet: percent increase of index [(HDL cholesterol/total cholesterol)×100] vs non-treatment group (100%); for inhibition in vivo at 0.01 % in diet: percent reduction of total cholesterol level vs non-treatment group (100%)
Experimental: Total Cholesterol Lowering Action and Plasma Anti-Arteriosclerosis Index-Enhancing Action in Mice
Test compounds were mixed in a powdery diet (CE-2, Japan Clea concentration of 0.01%, and freely given to KKA^y mice (11 to 12 weeks old, 5 mice per group), a model of type 2 diabetes mellitus, for four days. During this period, water was given freely. Blood was sampled from orbital venous plexus, and components in plasma separated from the blood were determined. Total cholesterol levels were determined using L type Wako Cholesterol (Wako Pure Chemical Industries, Ltd.). Precipitation reagent for HDL cholesterol was added to a part of the plasma to precipitate non-HDL lipoprotein, and cholesterol (HDL cholesterol) in the resulting supernatant was determined. The plasma anti-arteriosclerosis index [(HDL cholesterol/total cholesterol)×100] was calculated using these cholesterol levels.
In the Table, “total cholesterol lowering action (%)” represents a percent reduction (%) of the total cholesterol level in the treatment group when the total cholesterol level in the non-treatment group is taken as 100%. In addition, “plasma anti-arteriosclerosis index-enhancing action (%)” represents a percent increase (%) of the plasma anti-arteriosclerosis index in the treatment group when the plasma anti-arteriosclerosis index in the non-treatment group is taken as 100%.

[4] = percent reduction of blood glucose level vs non-treatment group (100%), read-out: Hypoglycemic action (%)
[5] = percent reduction of blood triglyceride level vs non-treatment group (100%), read-out: Hypolipidemic action (%)

| Compound | melting point | EC50 [2] | inhibition in vivo at 0.01 % in diet [1, 4] | inhibition in vivo at 0.01 % in diet [1, 5] | change in vivo at 0.01 % in diet [3] | inhibition in vivo at 0.01 % in diet [3] |
| --- | --- | --- | --- | --- | --- | --- |
| Cc1oc(-c2ccccc2)nc1COc1ccc(Cc2nc(CCC(=O)O)c(-c3ccccc3)s2)cc1 [Example 8, 3-[2-[4-(5-methyl-2-phenyl-4-oxazolylmethoxy)benzyl]-5-phenyl-4-thiazolyl]propionic acid] | 119 to 120 °C | 16 nM | 43% | 56% | 11% | 17% |
| Cc1oc(-c2ccccc2)nc1COc1ccc(COc2nn(C)cc2CC(=O)O)cn1 [Example 26, [1-methyl-3-[6-(5-methyl-2-phenyl-4-oxazolylmethoxy)-3-pyridylmethoxy]-1H-pyrazol-4-yl]acetic acid] | 139 to 140 °C | 37 nM | 56% | 53% | 14% | 14% |
| Cc1oc(-c2ccccc2)nc1COc1ccc(COc2nn(Cc3ccccc3)cc2CC(=O)O)cn1 [Example 40, [1-benzyl-3-[6-(5-methyl-2-phenyl-4-oxazolylmethoxy)-3-pyridylmethoxy]-1H-pyrazol-4-yl]acetic acid] | 87 to 88 °C |  | 52% | 76% | 22% | 13% |
| COc1cc(COc2nn(-c3ccccc3)cc2CC(=O)O)ccc1OCc1nc(-c2ccccc2)oc1C [Example 52, [3-[3-methoxy-4-(5-methyl-2-phenyl-4-oxazolylmethoxy)benzyloxy]-1-phenyl-1H-pyrazol-4-yl]acetic acid] | 147 to 148 °C | 0.38 nM | 50% | 82% | 16% | 22% |
| Cc1oc(-c2ccccc2)nc1COc1ccc(COc2nn(-c3ccccc3)cc2CC(=O)O)cn1 [Example 54, [3-[6-(5-methyl-2-phenyl-4-oxazolylmethoxy)-3-pyridylmethoxy]-1-phenyl-1H-pyrazol-4-yl]acetic acid] | 164 to 165 °C | 0.64 nM | 52% | 89% | 14% | 18% |
| Cc1oc(-c2ccccc2)nc1COc1ccc(CCc2oc(-c3ccccc3)nc2CC(=O)O)cc1 [Example 64, [5-[2-[4-(5-methyl-2-phenyl-4-oxazolyl)methoxyphenyl]ethyl]-2-phenyl-4-oxazolyl]acetic acid] | 180 to 181 °C | 6.9 nM |  |  |  |  |

Continued by falling EC50 [2], values first:

| melting point | EC50 [2] | Compound | inhibition in vivo at 0.01 % in diet [1, 4] | inhibition in vivo at 0.01 % in diet [1, 5] | change in vivo at 0.01 % in diet [3] | inhibition in vivo at 0.01 % in diet [3] |
| --- | --- | --- | --- | --- | --- | --- |
| 193 to 196 °C | 16 nM | Cc1oc(-c2ccccc2)nc1COc1ccc(Cc2nc(-c3ccccc3)c(CCC(=O)O)[nH]2)cc1 [Example 4, 3-[2-[4-(5-methyl-2-phenyl-4-oxazolylmethoxy)benzyl]-4-phenyl-1H-imidazol-5-yl]propionic acid] |  |  |  |  |
| 151 to 152 °C | 3.9 nM | Cc1oc(-c2ccccc2)nc1COc1ccc(COc2nn(-c3ccccc3)cc2CC(=O)O)cc1 [Example 50, [3-[4-(5-methyl-2-phenyl-4-oxazolylmethoxy)benzyloxy]-1-phenyl-1H-pyrazol-4-yl]acetic acid] | 46% | 81% | 12% | 8% |
| 142 to 143 °C | 3.7 nM | Cc1oc(-c2ccccc2)nc1COc1ccc(Cc2nc(-c3ccccc3)c(CCC(=O)O)o2)cc1 [Example 2, 3-[2-[4-(5-methyl-2-phenyl-4-oxazolylmethoxy)benzyl]-4-phenyl-5-oxazolyl]propionic acid] | 45% | 52% |  |  |
| 136 to 137 °C | 3.6 nM | Cc1oc(-c2ccccc2)nc1COc1ccc(Cc2nc(CCC(=O)O)c(-c3ccccc3)o2)cc1 [Example 6, 3-[2-[4-(5-methyl-2-phenyl-4-oxazolylmethoxy)benzyl]-5-phenyl-4-oxazolyl]propionic acid] | 46% | 62% | 17% | 27% |
